Experimental data reported in ChEMBL document CHEMBL5370642, “Synthesis and Bioevaluation of 3-(Arylmethylene)indole Derivatives: Discovery of a Novel ALK Modulator with Antiglioblastoma Activities” (J Med Chem, 2023).
The source made the active and inactive calls. The calls are words filed in the database; no cut-off is given here.

Key:
U-87 MG [1] = assay: Anti-proliferative activity against human U-87 MG cells assessed as cell viability incubated for 2 hrs by CCK8 assay; assay type: functional, cell-based, U-87MG ATCC
GL261 [2] = assay: Anti-proliferative activity against mouse GL261 cells assessed as cell viability incubated for 2 hrs by CCK8 assay; assay type: functional, cell-based; settings: GL261, 2 h
U-87 MG [3] = assay: Anti-proliferative activity against human U-87 MG cells assessed as inhibition rate incubated for 48 hrs by CCK8 assay; assay type: functional, cell-based; settings: U-87MG ATCC
GL261 [4] = assay: Anti-proliferative activity against […] GL261 cells assessed as inhibition rate incubated for 48 hrs by CCK8 assay; assay type: functional, cell-based

Row | SMILES | IC50 (U-87 MG [1]) | IC50 (GL261 [2]) | inhibition (U-87 MG [3]) | inhibition (GL261 [4])
1 | Cc1ccc(S(=O)(=O)n2cc(Cc3cc(C(C)(C)C)c(O)c(C(C)(C)C)c3)c3ccccc32)cc1 | > 100 µM | 100 µM |  | 
2 | Cc1cc(Cc2cn(C(=O)c3ccc(N4CCN(C)CC4)cc3)c3ccccc23)cc(C)c1O | 5.59 µM | 3.49 µM |  | 
3 | CC(C)c1cccc(C(C)C)c1O [PROPOFOL] | > 100 µM | 100 µM |  | 
4 | Cc1cc(Cc2cn(S(=O)(=O)c3ccc([N+](=O)[O-])c(Cl)c3)c3ccccc23)cc(C)c1O | 3.52 µM | 15.7 µM |  | 
5 | Cc1cc(Cc2cn(C(=O)c3ccc([N+](=O)[O-])cc3)c3ccccc23)cc(C)c1O | > 100 µM | 100 µM |  | 
6 | COc1ccc2c(c1)c(Cc1cc(C)c(O)c(C)c1)cn2S(=O)(=O)c1ccc(C)cc1 | 28.1 µM | 56.1 µM |  | 
7 | Cc1ccc(S(=O)(=O)n2cc(Cc3cc(C)c(O)c(C)c3)c3cc([N+](=O)[O-])ccc32)cc1 | 23.2 µM | 19.7 µM |  | 
8 | Cc1ccc(S(=O)(=O)n2cc(Cc3cc(C)c(O)c(C)c3)c3cc(C#N)ccc32)cc1 | 30.2 µM | 9.6 µM |  | 
9 | Cc1ccc(S(=O)(=O)n2cc(Cc3cc(C(C)C)c(O)c(C(C)C)c3)c3ccccc32)cc1 | 75.4 µM | 90.3 µM |  | 
10 | OCc1c[nH]c2ccccc12 [INDOLE-3-CARBINOL] | > 100 µM | 100 µM |  | 
11 | Cc1cc(Cc2cn(Cc3ccc(Cl)cc3)c3ccccc23)cc(C)c1O | 87.8 µM | 54.9 µM |  | 
12 | Cc1cc(Cc2cn(S(=O)(=O)c3ccc([N+](=O)[O-])cc3)c3ccccc23)cc(C)c1O | > 100 µM | 100 µM |  | 
13 | C[C@@H](Oc1cc(-c2cnn(C3CCNCC3)c2)cnc1N)c1c(Cl)ccc(F)c1Cl [CRIZOTINIB] | 7.29 µM | 3.43 µM |  | 
14 | Cc1cc(Cc2cn(C(=O)c3ccnc4ccccc34)c3ccccc23)cc(C)c1O | > 100 µM | 11.4 µM |  | 
15 | Cc1cc(Cc2cn(C(=O)c3ccc(N4CCOCC4)cc3)c3ccccc23)cc(C)c1O | 12.6 µM | 12.7 µM |  | 
16 | COc1c(C)cc(Cc2cn(S(=O)(=O)c3ccc(C)cc3)c3ccccc23)cc1C | > 100 µM | 100 µM |  | 
17 | Cc1ccc(S(=O)(=O)n2cc(Cc3cc(C)c(O)c(C)c3)c3cc(NC(=O)CCCC[C@@H]4SC[C@@H]5NC(=O)N[C@@H]54)ccc32)cc1 |  |  | Active | Active

Further lines, with some results ahead:

Row | IC50 (U-87 MG [1]) | SMILES | IC50 (GL261 [2]) | inhibition (U-87 MG [3]) | inhibition (GL261 [4])
18 | 42.6 µM | Cc1ccc(S(=O)(=O)n2cc(Cc3cc(C)c(O)c(C)c3)c3cc(F)ccc32)cc1 | 100 µM |  | 
19 | > 100 µM | Cc1cc(Cc2cn(S(=O)(=O)c3ccc(Br)cc3)c3ccccc23)cc(C)c1O | 100 µM |  | 
20 | > 100 µM | Cc1cc(Cc2cn(S(C)(=O)=O)c3ccccc23)cc(C)c1O | 100 µM |  | 
21 | 20.7 µM | Cc1ccc(S(=O)(=O)n2cc(Cc3cc(C)c(O)c(C)c3)c3cc(C)ccc32)cc1 | 12.3 µM |  | 
22 | > 100 µM | Cc1cc(Cc2c[nH]c3ccccc23)cc(C)c1O | 12.8 µM |  | 
23 | 10.4 µM | COc1ccc2c(Cc3cc(C)c(O)c(C)c3)cn(S(=O)(=O)c3ccc(C)cc3)c2c1 | 38.5 µM |  | 
24 | 55.1 µM | Cc1cc(Cc2c[nH]c3ccc(F)cc23)cc(C)c1O | 19.2 µM |  | 
25 | 58.3 µM | CC(=O)n1cc(Cc2cc(C)c(O)c(C)c2)c2ccccc21 | 25.4 µM |  | 
26 | > 100 µM | Cc1cc(Cc2cn(C(=O)c3ccncn3)c3ccccc23)cc(C)c1O | 13.3 µM |  | 
27 | 41.3 µM | Cc1cc(Cc2cn(C(=O)c3ccc(Cl)cc3)c3ccccc23)cc(C)c1O | 100 µM |  | 
28 | 74.6 µM | Cc1cc(Cc2c[nH]c3ccc([N+](=O)[O-])cc23)cc(C)c1O | 43.8 µM |  | 
29 | 7.96 µM | Cc1cc(Cc2cn(C)c3ccccc23)cc(C)c1O | 12.7 µM |  | 
30 | 100 µM | CCC(=O)n1cc(Cc2cc(C)c(O)c(C)c2)c2ccccc21 | 2850 µM |  | 
31 | > 100 µM | CCn1cc(Cc2cc(C)c(O)c(C)c2)c2ccccc21 | 100 µM |  | 
